Test results reported in patent US20260373127A1, “USE OF DIHYDROBERBERINE OR ITS DERIVATIVES FOR REGULATING GLP-1” (NANJING NUTRABUILDING BIO-TECH CO., LTD., priority 2024, published 2026).

Columns and labels:
GLP-1 [1] = assay: Serum GLP-1 by ELISA; assay type: in vivo, mice; settings: 1.5 mg/kg; result in words
Procedure: (§1) At the beginning of the experiment, the mice were divided randomly into control mice (Group 1, n=8), HFD group (Group 2, n=8), HFD+DHB group (Group 3, n=8) and NC+DHB group (Group 4, n=8). The dosage of DHB supplementation is 1.5 mg/kg. The group 1 is the control group and is given the normal chow; the group 2 is the high-fat mouse and continue high fat diet for 8 weeks; the group 3 also continued to eat a high-fat diet and received daily intragastric administration of sample for 8 weeks; the group 4 is given the normal chow and received daily intragastric administration of sample for 8 weeks. Record the body fat and weight of each group of mice every week. Complete Oral glucose tolerance test (OGTT)/Insulin intraperitoneal tolerance test (IPTT) on the last day of week 8, then execute the mice and take serum −80 °C for storage.
(§2) Serum detection by ELISA: At week 8th of the experiment, the whole blood is extracted by removing the eyeball. The serum was acquired after centrifugation (10000 rpm 15 mins), stored at −80 °C for later use. Determinate the concentration of insulin (INS), cholesterol (TC), triglycerides (TG), LDL (low density lipoprotein), HDL (high density lipoprotein), GLP-1 in serum by ELISA kits.

[2] = Insulin intraperitoneal tolerance test (IPTT); assay type: in vivo, mice
Procedure: as §1
(§3) Measurement of Blood Glucose: Oral glucose tolerance test (OGTT): At week 16th of the experiment, after fasting for 15 h, Glucose was given […] (2 g/kg), and blood Glucose was measured at 0, 15, 30, 60, 90, 120 mins. Insulin intraperitoneal tolerance test (IPTT): At week 16th of the experiment, after fasting for 15h, insulin (1U/kg) was injected intraperitoneally and blood glucose was measured at 0, 15, 30, 60, 90, 120 mins.

[3] = Oral glucose tolerance test (OGTT); assay type: in vivo, mice
Procedure: as §1, §3

Weight of the fat pad = assay type: in vivo, mice; settings: 1.5 mg/kg; result in words
Procedure: as §1
Weight of the fat pad: At the 17th week, the mice were sacrificed, and the fat pads (subcutaneous, epididymis and perirenal) were dissected, photographed and weighed.

GLP-1 [4] = assay: GLP-1 in another 14-week mice experiment; assay type: in vivo; settings: 35 mg/kg, at week 14
[5] = Serum lipids (TC, TG, LDL, HDL) by ELISA; assay type: in vivo, mice
Procedure: as §1, §2

[6] = Change of body weight, 8-week mouse study; assay type: in vivo, mice; settings: for body weight: DHB 1.5 mg/kg daily intragastric
Procedure: as §1
Change of body weight: Weigh once a week at a fixed time from beginning of the experiment.

[7] = Fasting blood glucose in another 14-week mice experiment; assay type: in vivo; settings: 35 mg/kg, at week 13
[8] = Body composition analysis (fat content), 8-week mouse study; assay type: in vivo, mice; settings: 1.5 mg/kg daily intragastric, 8 weeks
Procedure: as §1
Body composition analysis: During the experiment, the fat mass and lean mass was measured by Nuclear Magnetic Resonance Body Composition Analyzer once a week.

insulin (INS) = assay: Serum insulin (INS) by ELISA; assay type: in vivo, mice; settings: 1.5 mg/kg; result in words
Procedure: as §1, §2

[9] = Body weight in another 14-week mice experiment; assay type: in vivo; settings: 35 mg/kg
[10] = Acute intervention study on appetite measures in human; assay type: in vivo; settings: single 200 mg dose
[11] = HFD+DHB group, 1.5 mg/kg daily intragastric, 8 weeks
[12] = NC+DHB group, 1.5 mg/kg daily intragastric, 8 weeks

COc1ccc2c(c1OC)CN1CCc3cc4c(cc3C1=C2)OCO4 [DHB, dihydroberberine]
serum GLP-1 relative to mice without DHB supplementation (GLP-1 [1]): significantly increase | insulin tolerance relative to mice without DHB supplementation ([2]; 1.5 mg/kg, result in words): improve the blood glucose and insulin tolerance | decrease of AUC of IPTT compared with HFD group ([2]; HFD+DHB group (Group 3), 1.5 mg/kg daily intragastric, insulin 1U/kg i.p., 0-120 mins): about 27% | decrease of AUC of IPTT compared with control mice ([2]; NC+DHB group (Group 4), 1.5 mg/kg daily intragastric, insulin 1U/kg i.p., 0-120 mins): approximately 21% | blood glucose tolerance relative to mice without DHB supplementation ([3]; 1.5 mg/kg, result in words): improve the blood glucose and insulin tolerance | decrease of AUC of OGTT compared with HFD group ([3]; HFD+DHB group (Group 3), 1.5 mg/kg daily intragastric, glucose 2 g/kg, 0-120 mins): approximately 19% | decrease of AUC of OGTT compared with control mice ([3]; NC+DHB group (Group 4), 1.5 mg/kg daily intragastric, glucose 2 g/kg, 0-120 mins): approximately 10% | pararenal fat pad weight relative to mice without DHB supplementation (Weight of the fat pad): significantly increase | increase of GLP-1 compared with untreated control group (HFD) (GLP-1 [4]): 165% | serum HDL relative to mice without DHB supplementation ([5]; 1.5 mg/kg, result in words): significantly increase | serum LDL relative to mice without DHB supplementation ([5]; 1.5 mg/kg, result in words): decrease | serum TC relative to mice without DHB supplementation ([5]; 1.5 mg/kg, result in words): decrease | serum TG relative to mice without DHB supplementation ([5]; 1.5 mg/kg, result in words): decrease | decrease of LDL compared with HFD group [5, 11]: 32.3% | increase in serum HDL compared with HFD group [5, 11]: 19% | increase of ratio of HDL/LDL compared with HFD group [5, 11]: 76% | reduction in serum TG compared with HFD group [5, 11]: 26.1% | reduction of blood TC compared with HFD group [5, 11]: 20.6% | decrease of LDL compared with NC group [5, 12]: 18.3% | increase in serum HDL compared with NC group [5, 12]: 8.8% | increase of ratio of HDL/LDL compared with NC group [5, 12]: 33% | reduction in serum TG compared with NC group [5, 12]: 13.2% | reduction of blood TC compared with NC group [5, 12]: 9.8% | body weight curve ([6]; DHB groups, 1.5 mg/kg, 8 weeks, result in words): helpful in inhibiting high fat induced obesity | decrease of body weight compared with HFD group [6, 11]: 9.84% | body weight ([6]; HFD+DHB group, 8 weeks, HFD group 37 g): 33.36 g | decrease of body weight compared with NC group ([6]; NC+DHB group, 1.5 mg/kg daily intragastric, at the 8th week): 7.75% | body weight ([6]; NC+DHB group, 8 weeks, NC group 33.96 g): 31.33 g | decrease of fasting blood glucose compared with untreated control group (HFD group) [7]: about 16% | decrease of fat content compared with HFD group ([8]; HFD+DHB group (Group 3)): approximately 19% | decrease of fat content compared with control mice ([8]; NC+DHB group (Group 4)): ~35% | serum INS relative to mice without DHB supplementation (insulin (INS)): decrease | benefits over time ([9]; 14-week mice experiment, result in words): Benefits intensified over time rather than plateauing | weight loss compared with untreated control group (HFD group) ([9]; by week 7): about 15% | weight loss compared with untreated control group (HFD group) ([9]; by week 13): about 33% | subjective appetite [10]: decreases subjective appetite | composite appetite score ([10]; vs placebo): beat placebo | desire to eat ([10]; vs placebo): beat placebo | fullness ([10]; vs placebo): beat placebo | hunger ([10]; vs placebo): beat placebo | prospective food consumption ([10]; vs placebo): beat placebo
